Experimental data reported in patent US9233184B2, “Adhesive preparation” (HISAMITSU PHARMACEUTICAL CO., INC., priority 2006, dated 2016).
Read-outs that look alike come from different tables or passages of the source.

Tests used:
clinical = conditions: human, in vivo; for Cmax: plasma Cmax
Protocol: (§1) Blood was collected over time. […] Methyl salicylate and 1-menthol are contained in large amounts in daily necessities. Therefore, the use of such daily necessities was avoided before and during the application.
(§2) The plasma concentrations of the methyl salicylate, its metabolite salicylic acid, and the 1-menthol were separately measured. The measurement was performed by liquid chromatography-mass spectrometry for the salicylic acid and by gas chromatography-mass spectrometry for the methyl salicylate and the 1-menthol. Each of the measurement methods was validated beforehand to confirm measurement reliability. Values obtained by subtracting an endogenous concentration (measurement value on 0 hour) before the application from an actual measurement value were used as plasma concentrations during the application. The Cmax and AUC0-24 were calculated according to the standard methods.
This measurement of the plasma concentrations was performed according to the guideline of FDA (U.S. Food and Drug Administration) (Guidance for Industry=Bioanalytical Method Validation).

[1] = human, in vivo
Protocol: as §1, §2
A mean was an average value from the seven individuals to be tested. This measurement of the plasma concentrations was performed according to the guideline of FDA (U.S. Food and Drug Administration) (Guidance for Industry=Bioanalytical Method Validation).

[2] = cited from earlier work

SMILES | AUC(0-t) (clinical; plasma AUC0-24, Mean ± S.D.) | time within which maximum plasma concentration (Cmax) is achieved [1] | plasma concentration of methyl salicylate ([2]; eight pieces of adhesive preparation with 74.88 mg/piece of methyl salicylate applied to a human) | plasma concentration of methyl salicylate ([2]; two pieces of adhesive preparation with 74.88 mg/piece of methyl salicylate applied to a human) | AUC(0-t) (clinical; plasma AUC0-24, Maximum value) | AUC(0-t) (clinical; plasma AUC0-24, Minimum value) | Cmax (clinical; Maximum value) | Cmax (clinical; Mean ± S.D.) | Cmax (clinical; Minimum value)
CC1CCC(C(C)C)C(O)C1 (stereo not drawn) [Example 1-menthol, 1-menthol] | 80.6 ng·h/mL | ≤ 8 h | – | – | – | – | – | – | –
COC(=O)c1ccccc1O [Methyl salicylate] | 30.1 ng·h/mL | ≤ 6 h | approximately 30 ng/mL | hardly rose | 139 ng·h/mL | 3.7 ng·h/mL | 109 ng/mL | 21.1 ng/mL | 2.5 ng/mL
O=C(O)c1ccccc1O [Salicylic acid] | 8850 ng·h/mL | ≤ 12 h | – | – | 24700 ng·h/mL | 3460 ng·h/mL | 4100 ng/mL | 1290 ng/mL | 531 ng/mL
